According to ChEMBL document CHEMBL1140680 (Bioorg Med Chem Lett, 2007):
In brackets after ≈: the same amount, converted by molar mass.

Legend:
Enterococcus faecalis = assay: Antibacterial activity against Enterococcus faecalis MG2 EF1 by micro-broth method; type: functional
Streptococcus pneumoniae = assay: Antibacterial activity against Streptococcus pneumoniae SV1 SP3 by micro-broth method; type: functional
Streptococcus pyogenes = assay: Antibacterial activity against Streptococcus pyogenes C203 SP1-1 by micro-broth method; type: functional
Staphylococcus aureus = assay: Antibacterial activity against Staphylococcus aureus UC76 SA1 by micro-broth method; type: functional
Haemophilus influenzae = assay: Antibacterial activity against Heamophilus influenzae HI3542 by microbroth method; type: functional
Moraxella catarrhalis = assay: Antibacterial activity against Moraxella catarrhalis BC-3531 by micro-broth method; type: functional
Escherichia coli = assay: Inhibition of transcription and translation activity in Escherichia coli by luciferase reporter assay; type: functional, organism-based

| MIC (Enterococcus faecalis) [µg/mL] | MIC (Streptococcus pneumoniae) [µg/mL] | MIC (Streptococcus pyogenes) [µg/mL] | MIC (Staphylococcus aureus) [µg/mL] | MIC (Haemophilus influenzae) [µg/mL] | MIC (Moraxella catarrhalis) [µg/mL] | IC50 (Escherichia coli) [µM] | SMILES |
| --- | --- | --- | --- | --- | --- | --- | --- |
| 2 (≈ 6.32 µM) | 0.5 (≈ 1.58 µM) | 0.5 (≈ 1.58 µM) | 1 (≈ 3.16 µM) |  |  |  | CC(=O)NC[C@H]1CN(c2ccc3c(c2)CCCCC3=O)C(=O)O1 |
| 0.5 (≈ 1.2 µM) | 0.125 (≈ 0.299 µM) | 0.25 (≈ 0.599 µM) | 1 (≈ 2.4 µM) | 4 (≈ 9.58 µM) | 2 (≈ 4.79 µM) | 1 | CC(=O)NC[C@H]1CN(c2ccc3c(c2)CCCc2c(-c4cccnc4)n[nH]c2-3)C(=O)O1 |
| 0.25 (≈ 0.615 µM) | 0.25 (≈ 0.615 µM) | 0.125 (≈ 0.308 µM) | 0.5 (≈ 1.23 µM) | 4 (≈ 9.84 µM) | 1 (≈ 2.46 µM) | 0.7 | CC(=O)NC[C@H]1CN(c2ccc3c(c2)CCCc2c(-c4ccoc4)n[nH]c2-3)C(=O)O1 |
| 0.125 (≈ 0.307 µM) | < 0.06 | < 0.06 | 0.25 (≈ 0.614 µM) | 2 (≈ 4.91 µM) | 1 (≈ 2.45 µM) | 0.76 | CC(=O)NC[C@H]1CN(c2ccc3c(c2)CCCc2c(-c4ccno4)n[nH]c2-3)C(=O)O1 |
| 0.5 (≈ 1.18 µM) | 0.125 (≈ 0.295 µM) | 1 (≈ 2.36 µM) | 1 (≈ 2.36 µM) | 2 (≈ 4.72 µM) | 1 (≈ 2.36 µM) | 1.1 | CC(=O)NC[C@H]1CN(c2ccc3c(c2)CCCc2c(-c4cscn4)n[nH]c2-3)C(=O)O1 |
| > 64 | 0.25 (≈ 0.516 µM) | 0.25 (≈ 0.516 µM) | > 64 | 16 (≈ 33 µM) | > 64 |  | CC(=O)NC[C@H]1CN(c2ccc3c(c2)CCCc2c(-c4nnc(-c5ccccc5)o4)n[nH]c2-3)C(=O)O1 |
| 0.25 (≈ 0.734 µM) | 0.25 (≈ 0.734 µM) | 0.125 (≈ 0.367 µM) | 0.5 (≈ 1.47 µM) | 2 (≈ 5.88 µM) | 2 (≈ 5.88 µM) |  | CC(=O)NC[C@H]1CN(c2ccc3c(c2)CCCc2cn[nH]c2-3)C(=O)O1 |
| 0.5 (≈ 1.2 µM) | 0.5 (≈ 1.2 µM) | 0.5 (≈ 1.2 µM) | 0.5 (≈ 1.2 µM) | 8 (≈ 19.2 µM) | 2 (≈ 4.8 µM) | 2 | CC(=O)NC[C@H]1CN(c2ccc3c(c2)CCCc2c(-c4ccccc4)n[nH]c2-3)C(=O)O1 |
| 0.5 (≈ 1.16 µM) | 0.25 (≈ 0.578 µM) | 2 (≈ 4.62 µM) | 1 (≈ 2.31 µM) | 4 (≈ 9.25 µM) | 2 (≈ 4.62 µM) | 1.7 | CC(=O)NC[C@H]1CN(c2ccc3c(c2)CCCc2c(-c4ccc(O)cc4)n[nH]c2-3)C(=O)O1 |
| 0.25 (≈ 0.566 µM) | 0.25 (≈ 0.566 µM) | 0.125 (≈ 0.283 µM) | 0.5 (≈ 1.13 µM) | 4 (≈ 9.06 µM) | 1 (≈ 2.27 µM) | 1.4 | CC(=O)NC[C@H]1CN(c2ccc3c(c2)CCCc2c(-c4ccc(C#N)cc4)n[nH]c2-3)C(=O)O1 |
| 1 (≈ 2.17 µM) | 0.5 (≈ 1.09 µM) | 0.5 (≈ 1.09 µM) | 1 (≈ 2.17 µM) | 32 (≈ 69.5 µM) | 4 (≈ 8.69 µM) | 16.8 | O=C(NC[C@H]1CN(c2ccc3c(c2)CCCc2c(-c4ccno4)n[nH]c2-3)C(=O)O1)c1ccno1 |
| 0.5 (≈ 1.1 µM) | 0.5 (≈ 1.1 µM) | 0.5 (≈ 1.1 µM) | 2 (≈ 4.38 µM) | > 64 | 8 (≈ 17.5 µM) | > 31.2 | CC(=O)NC[C@H]1CN(c2ccc3c(c2)CCCc2c(-c4cc5ccccc5o4)n[nH]c2-3)C(=O)O1 |
| > 64 | > 64 | > 64 | > 64 | > 64 | > 64 |  | CC(=O)NC[C@H]1CN(c2ccc3c(c2)CCCc2c(-c4nc5ccccc5s4)n[nH]c2-3)C(=O)O1 |
| 2 (≈ 4.71 µM) | 1 (≈ 2.36 µM) | 1 (≈ 2.36 µM) | 2 (≈ 4.71 µM) | 64 (≈ 151 µM) | 8 (≈ 18.8 µM) | 5.7 | CC(=O)NC[C@H]1CN(c2cc(F)c3c(c2)CCCc2c(-c4ccco4)n[nH]c2-3)C(=O)O1 |
| 1 (≈ 2.18 µM) | 1 (≈ 2.18 µM) | 1 (≈ 2.18 µM) | 2 (≈ 4.36 µM) | 8 (≈ 17.4 µM) | 4 (≈ 8.72 µM) | 3.5 | O=C(NC[C@H]1CN(c2ccc3c(c2)CCCc2c(-c4ccoc4)n[nH]c2-3)C(=O)O1)c1ccoc1 |
| 2 (≈ 4.42 µM) | 1 (≈ 2.21 µM) | 1 (≈ 2.21 µM) | 4 (≈ 8.84 µM) | > 64 | 32 (≈ 70.7 µM) | 4.2 | CC(=O)NC[C@H]1CN(c2cc(F)c3c(c2)CCCc2c(-c4cc(C)n(C)n4)n[nH]c2-3)C(=O)O1 |
| 2 (≈ 4.87 µM) | 1 (≈ 2.44 µM) | 1 (≈ 2.44 µM) | 2 (≈ 4.87 µM) | > 64 | 8 (≈ 19.5 µM) | 5.6 | CCCC(=O)NC[C@H]1CN(c2ccc3c(c2)CCCc2c(CCC)n[nH]c2-3)C(=O)O1 |
| > 64 | 1 (≈ 2.05 µM) | 2 (≈ 4.09 µM) | > 64 | > 64 | > 64 |  | Cc1cc(C(=O)NC[C@H]2CN(c3ccc4c(c3)CCCc3c(-c5cc(C)on5)n[nH]c3-4)C(=O)O2)no1 |
| 32 (≈ 57.3 µM) | 8 (≈ 14.3 µM) | 4 (≈ 7.16 µM) | 32 (≈ 57.3 µM) | > 64 | > 64 | > 25 | O=C(NC[C@H]1CN(c2ccc3c(c2)CCCc2c(-c4cc5ccccc5o4)n[nH]c2-3)C(=O)O1)c1cc2ccccc2o1 |

| MIC (Enterococcus faecalis) [µg/mL] | MIC (Streptococcus pneumoniae) [µg/mL] | MIC (Streptococcus pyogenes) [µg/mL] | MIC (Staphylococcus aureus) [µg/mL] | MIC (Haemophilus influenzae) [µg/mL] | MIC (Moraxella catarrhalis) [µg/mL] | IC50 (Escherichia coli) [µM] | SMILES |
| --- | --- | --- | --- | --- | --- | --- | --- |
| > 64 | > 64 | > 64 | > 64 | > 64 | > 64 | 11.5 | Cc1cc(C(=O)NC[C@H]2CN(c3cc(F)c4c(c3)CCCc3c(-c5cc(C)on5)n[nH]c3-4)C(=O)O2)no1 |
| > 64 | > 64 | > 64 | > 64 | > 64 | > 64 | > 25 | Cc1cc(C(=O)NC[C@H]2CN(c3cc(F)c4c(c3)CCCc3c(-c5cc(C)n(C)n5)n[nH]c3-4)C(=O)O2)nn1C |
| 8 (≈ 21.9 µM) | 4 (≈ 10.9 µM) | 2 (≈ 5.47 µM) | 16 (≈ 43.8 µM) | > 64 | 64 (≈ 175 µM) | 8.3 | NC[C@H]1CN(c2ccc3c(c2)CCCc2c(-c4ccno4)n[nH]c2-3)C(=O)O1 |
| 0.5 (≈ 1.14 µM) | 0.5 (≈ 1.14 µM) | 0.5 (≈ 1.14 µM) | 1 (≈ 2.29 µM) | > 64 | 4 (≈ 9.14 µM) | 1.8 | CCOC(=O)NC[C@H]1CN(c2ccc3c(c2)CCCc2c(-c4ccno4)n[nH]c2-3)C(=O)O1 |
| 0.5 (≈ 1.15 µM) | 0.25 (≈ 0.577 µM) | 0.25 (≈ 0.577 µM) | 1 (≈ 2.31 µM) | 32 (≈ 73.8 µM) | 1 (≈ 2.31 µM) | 1.3 | O=C(NC[C@H]1CN(c2ccc3c(c2)CCCc2c(-c4ccno4)n[nH]c2-3)C(=O)O1)C1CC1 |
| 0.5 (≈ 1.15 µM) | 0.25 (≈ 0.575 µM) | 0.25 (≈ 0.575 µM) | 0.5 (≈ 1.15 µM) | 8 (≈ 18.4 µM) | 4 (≈ 9.21 µM) | 1.3 | CC(=O)NC[C@H]1CN(c2ccc3c(c2)CCCc2c(-c4cc(C)n(C)n4)n[nH]c2-3)C(=O)O1 |
| 8 (≈ 16 µM) | 0.5 (≈ 1 µM) | 1 (≈ 2 µM) | 8 (≈ 16 µM) | > 64 | > 64 | > 11.4 | CC(=O)NC[C@H]1CN(c2ccc3c(c2)CCCc2c(-c4csc(-c5ccccc5)n4)n[nH]c2-3)C(=O)O1 |
| 0.5 (≈ 1.15 µM) | 0.25 (≈ 0.575 µM) | 1 (≈ 2.3 µM) | 0.5 (≈ 1.15 µM) | 8 (≈ 18.4 µM) | 1 (≈ 2.3 µM) | 1.5 | CC(=O)NC[C@H]1CN(c2ccc3c(c2)CCCc2c(-c4ccc(F)cc4)n[nH]c2-3)C(=O)O1 |
| 1 (≈ 2.4 µM) | 0.25 (≈ 0.599 µM) | 0.25 (≈ 0.599 µM) | 2 (≈ 4.79 µM) | 4 (≈ 9.58 µM) | 2 (≈ 4.79 µM) | 1 | CC(=O)NC[C@H]1CN(c2ccc3c(c2)CCCc2c(-c4ccncc4)n[nH]c2-3)C(=O)O1 |
| 0.5 (≈ 1.19 µM) | 0.25 (≈ 0.593 µM) | 0.25 (≈ 0.593 µM) | 0.5 (≈ 1.19 µM) | 4 (≈ 9.49 µM) | 2 (≈ 4.75 µM) | 0.9 | CC(=O)NC[C@H]1CN(c2ccc3c(c2)CCCc2c(-c4cc(C)on4)n[nH]c2-3)C(=O)O1 |
| 0.5 (≈ 1.14 µM) | 0.25 (≈ 0.57 µM) | 0.125 (≈ 0.285 µM) | 0.5 (≈ 1.14 µM) | 8 (≈ 18.2 µM) | 2 (≈ 4.56 µM) | 0.7 | CC(=O)NC[C@H]1CN(c2ccc3c(c2)CCCc2c(-c4snnc4C)n[nH]c2-3)C(=O)O1 |
| 0.5 (≈ 1.18 µM) | 0.5 (≈ 1.18 µM) | 0.25 (≈ 0.588 µM) | 1 (≈ 2.35 µM) | > 64 | 4 (≈ 9.4 µM) | 1.4 | CC(=O)NC[C@H]1CN(c2cc(F)c3c(c2)CCCc2c(-c4ccno4)n[nH]c2-3)C(=O)O1 |
| 0.5 (≈ 1.14 µM) | 0.5 (≈ 1.14 µM) | 0.5 (≈ 1.14 µM) | 1 (≈ 2.28 µM) | > 64 | 4 (≈ 9.1 µM) | 2.1 | CC(=O)NC[C@H]1CN(c2cc(F)c3c(c2)CCCc2c(-c4cc(C)on4)n[nH]c2-3)C(=O)O1 |
| 1 (≈ 2.13 µM) | 1 (≈ 2.13 µM) | 1 (≈ 2.13 µM) | 2 (≈ 4.25 µM) | > 64 | 32 (≈ 68 µM) | 2.8 | O=C(NC[C@H]1CN(c2ccc3c(c2)CCCc2c(-c4ccno4)n[nH]c2-3)C(=O)O1)c1cccnc1 |
| 0.5 (≈ 1.13 µM) | 0.25 (≈ 0.564 µM) | 0.125 (≈ 0.282 µM) | 0.5 (≈ 1.13 µM) | 4 (≈ 9.02 µM) | 1 (≈ 2.26 µM) | 0.21 | O=C(NC[C@H]1CN(c2ccc3c(c2)CCCc2c(-c4ccno4)n[nH]c2-3)C(=O)O1)C(F)F |
| 2 (≈ 5.58 µM) | 1 (≈ 2.79 µM) | 1 (≈ 2.79 µM) | 2 (≈ 5.58 µM) | 8 (≈ 22.3 µM) | 8 (≈ 22.3 µM) | 2.1 | CC(=O)NC[C@H]1CN(c2cc(F)c3c(c2)CCCc2cn[nH]c2-3)C(=O)O1 |
| 8 (≈ 19.5 µM) | 4 (≈ 9.74 µM) | 4 (≈ 9.74 µM) | 8 (≈ 19.5 µM) | 64 (≈ 156 µM) | 32 (≈ 78 µM) | 7.9 | CC(C)C(=O)NC[C@H]1CN(c2ccc3c(c2)CCCc2c(C(C)C)n[nH]c2-3)C(=O)O1 |
| 4 (≈ 8.32 µM) | 1 (≈ 2.08 µM) | 2 (≈ 4.16 µM) | 8 (≈ 16.6 µM) | > 64 | 16 (≈ 33.3 µM) | 3.7 | O=C(NC[C@H]1CN(c2ccc3c(c2)CCCc2c(-c4cccnc4)n[nH]c2-3)C(=O)O1)c1cccnc1 |

| SMILES | MIC (Enterococcus faecalis) [µg/mL] | MIC (Streptococcus pneumoniae) [µg/mL] | MIC (Streptococcus pyogenes) [µg/mL] | MIC (Staphylococcus aureus) [µg/mL] | MIC (Haemophilus influenzae) [µg/mL] | MIC (Moraxella catarrhalis) [µg/mL] | IC50 (Escherichia coli) [µM] |
| --- | --- | --- | --- | --- | --- | --- | --- |
| CC(=O)NC[C@H]1CN(c2ccc(N3CCOCC3)c(F)c2)C(=O)O1 [LINEZOLID] |  |  | 2 (≈ 5.93 µM) |  |  |  |  |
